Results from patent US9695155B2, “Herbicidal substituted pyrimidinyloxy benzene compounds” (E. I. DU PONT DE NEMOURS AND COMPANY, priority 2013, dated 2017).

What was measured:
barnyardgrass [1] = assay: Test A preemergence; format: in vivo, Echinochloa crus-galli
Procedure, shortened: (§1)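 Injury scores run from 0, no effect, to 100, complete control, judged by eye against untreated plants roughly 10 days after treatment. Chemicals carried a surfactant in a non-phytotoxic solvent and went onto loam–sand soil preemergence or onto one- to two-leaf seedlings postemergence.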

large (Lg) crabgrass [2] = assay: Test A preemergence; format: in vivo, Digitaria sanguinalis
Procedure, shortened: as §1

giant foxtail [3] = assay: Test A preemergence; format: in vivo, Setaria faberii
Procedure, shortened: as §1

morningglory [4] = assay: Test A preemergence; format: in vivo, Ipomoea spp.
Procedure, shortened: as §1

pigweed [5] = assay: Test A preemergence; format: in vivo, Amaranthus retroflexus
Procedure, shortened: as §1

velvetleaf [6] = assay: Test A preemergence; format: in vivo, Abutilon theophrasti
Procedure, shortened: as §1

wheat [7] = assay: Test A preemergence; format: in vivo, Triticum aestivum
Procedure, shortened: as §1

corn [8] = assay: Test A preemergence; format: in vivo, Zea mays
Procedure, shortened: as §1

barnyardgrass [9] = assay: Test A postemergence; format: in vivo, Echinochloa crus-galli
Procedure, shortened: as §1

large (Lg) crabgrass [10] = assay: Test A postemergence; format: in vivo, Digitaria sanguinalis
Procedure, shortened: as §1

giant foxtail [11] = assay: Test A postemergence; format: in vivo, Setaria faberii
Procedure, shortened: as §1

morningglory [12] = assay: Test A postemergence; format: in vivo, Ipomoea spp.
Procedure, shortened: as §1

pigweed [13] = assay: Test A postemergence; format: in vivo, Amaranthus retroflexus
Procedure, shortened: as §1

velvetleaf [14] = assay: Test A postemergence; format: in vivo, Abutilon theophrasti
Procedure, shortened: as §1

wheat [15] = assay: Test A postemergence; format: in vivo, Triticum aestivum
Procedure, shortened: as §1

corn [16] = assay: Test A postemergence; format: in vivo, Zea mays
Procedure, shortened: as §1

rice = assay: Test B flooded paddy test; format: in vivo, Oryza sativa; settings: Flood, 250 g ai/ha; 0 to 100 scale where 0 is no effect and 100 is complete control
Procedure, shortened: (§2)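 Seedlings are raised to two leaves, flooded to a depth of 3 cm and dosed by adding the compound to the floodwater. Water level is kept constant, and plants are scored visually versus controls 13–15 days later (0 = no effect, 100 = complete control).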

sedge, umbrella = assay: Test B flooded paddy test; format: in vivo, Cyperus difformis; settings: Flood, 250 g ai/ha; 0 to 100 scale where 0 is no effect and 100 is complete control
Procedure, shortened: as §2

Heteranthera limosa = assay: Test B flooded paddy test; format: in vivo; settings: Flood, 250 g ai/ha; 0 to 100 scale where 0 is no effect and 100 is complete control
Procedure, shortened: as §2

barnyardgrass [17] = assay: Test B flooded paddy test; format: in vivo, Echinochloa crus-galli; settings: Flood, 250 g ai/ha; 0 to 100 scale where 0 is no effect and 100 is complete control
Procedure, shortened: as §2

[18] = 125 g ai/ha, 0 to 100 scale where 0 is no effect and 100 is complete control
[19] = 500 g ai/ha, 0 to 100 scale, 0 no effect, 100 complete control, approx. 10 days
[20] = 500 g ai/ha, 0 to 100 scale, 0 no effect, 100 complete control
[21] = 500 g ai/ha, 0 to 100 scale where 0 is no effect and 100 is complete control
[22] = 125 g ai/ha, 0 to 100 scale, 0 no effect, 100 complete control

Cc1cnc(Oc2ccccc2-n2cc(Cl)cn2)nc1 [Compound 15]
Barnyardgrass plant response rating (barnyardgrass [1]; [18]): 20
Barnyardgrass plant response rating (barnyardgrass [1]; [19]): 100
Crabgrass, Large plant response rating (large (Lg) crabgrass [2]; [18]): 40
Crabgrass, Large plant response rating (large (Lg) crabgrass [2]; [19]): 100
Foxtail, Giant plant response rating (giant foxtail [3]; [18]): 30
Foxtail, Giant plant response rating (giant foxtail [3]; [19]): 100
Morningglory plant response rating (morningglory [4]; [18]): 0
Morningglory plant response rating (morningglory [4]; [19]): 0
Pigweed plant response rating (pigweed [5]; [18]): 90
Pigweed plant response rating (pigweed [5]; [19]): 100
Velvetleaf plant response rating (velvetleaf [6]; [18]): 60
Velvetleaf plant response rating (velvetleaf [6]; [19]): 100
Wheat plant response rating (wheat [7]; [18]): 0
Wheat plant response rating (wheat [7]; [19]): 0
Corn plant response rating (corn [8]; [18]): 0
Corn plant response rating (corn [8]; [19]): 0
Plant response rating, Barnyardgrass (barnyardgrass [9]; [18]): 0
Plant response rating, Barnyardgrass (barnyardgrass [9]; [20]): 60
Plant response rating, Crabgrass, Large (large (Lg) crabgrass [10]; [18]): 10
Plant response rating, Crabgrass, Large (large (Lg) crabgrass [10]; [20]): 60
Plant response rating, Foxtail, Giant (giant foxtail [11]; [18]): 10
Plant response rating, Foxtail, Giant (giant foxtail [11]; [20]): 70
Plant response rating, Morningglory (morningglory [12]; [18]): 10
Plant response rating, Morningglory (morningglory [12]; [20]): 20
Plant response rating, Pigweed (pigweed [13]; [18]): 70
Plant response rating, Pigweed (pigweed [13]; [20]): 100
Plant response rating, Velvetleaf (velvetleaf [14]; [18]): 90
Plant response rating, Velvetleaf (velvetleaf [14]; [20]): 100
Plant response rating, Wheat (wheat [15]; [18]): 0
Plant response rating, Wheat (wheat [15]; [20]): 10
Plant response rating, Corn (corn [16]; [18]): 0
Plant response rating, Corn (corn [16]; [20]): 20
Plant response rating, Rice (rice): 20
Plant response rating, Sedge, Umbrella (sedge, umbrella): 85
Plant response rating, Ducksalad (Heteranthera limosa): 75
Plant response rating, Barnyardgrass (barnyardgrass [17]): 20

COc1cnn(-c2ccccc2Oc2ncc(Cl)cn2)c1 [Compound 186]
Barnyardgrass plant response rating (0 to 100 scale, 0 is no effect, 100 is complete control) (barnyardgrass [1]; 125 g ai/ha): 30
Barnyardgrass plant response rating (barnyardgrass [1]; [21]): 100
Crabgrass, Large plant response rating (0 to 100 scale) (large (Lg) crabgrass [2]; 125 g ai/ha): 100
Crabgrass, Large plant response rating (large (Lg) crabgrass [2]; [21]): 100
Foxtail, Giant plant response rating (0 to 100 scale) (giant foxtail [3]; 125 g ai/ha): 80
Foxtail, Giant plant response rating (giant foxtail [3]; [21]): 100
Morningglory plant response rating (0 to 100 scale) (morningglory [4]; 125 g ai/ha): 0
Morningglory plant response rating (morningglory [4]; [21]): 20
Pigweed plant response rating (0 to 100 scale) (pigweed [5]; 125 g ai/ha): 100
Pigweed plant response rating (pigweed [5]; [21]): 100
Velvetleaf plant response rating (0 to 100 scale) (velvetleaf [6]; 125 g ai/ha): 70
Velvetleaf plant response rating (velvetleaf [6]; [21]): 100
Wheat plant response rating (0 to 100 scale) (wheat [7]; 125 g ai/ha): 0
Wheat plant response rating (wheat [7]; [21]): 20
Corn plant response rating (0 to 100 scale) (corn [8]; 125 g ai/ha): 0
Corn plant response rating (corn [8]; [21]): 0
Barnyardgrass plant response rating (barnyardgrass [9]; [18]): 20
Plant response rating, Barnyardgrass (barnyardgrass [9]; [21]): 70
Crabgrass, Large plant response rating (large (Lg) crabgrass [10]; [18]): 40
Plant response rating, Crabgrass, Large (large (Lg) crabgrass [10]; [21]): 70
Foxtail, Giant plant response rating (giant foxtail [11]; [18]): 20
Plant response rating, Foxtail, Giant (giant foxtail [11]; [21]): 80
Morningglory plant response rating (morningglory [12]; [18]): 60
Plant response rating, Morningglory (morningglory [12]; [21]): 100
Pigweed plant response rating (pigweed [13]; [18]): 100
Plant response rating, Pigweed (pigweed [13]; [21]): 100
Velvetleaf plant response rating (velvetleaf [14]; [18]): 80
Plant response rating, Velvetleaf (velvetleaf [14]; [21]): 90
Wheat plant response rating (wheat [15]; [18]): 0
Plant response rating, Wheat (wheat [15]; [21]): 60
Corn plant response rating (corn [16]; [18]): 0
Plant response rating, Corn (corn [16]; [21]): 30
Plant response rating, Rice (rice): 0
Plant response rating, Sedge, Umbrella (sedge, umbrella): 0
Plant response rating, Ducksalad (Heteranthera limosa): 0
Plant response rating, Barnyardgrass (barnyardgrass [17]): 0

Clc1cnc(Oc2cccc(-c3ncco3)c2-n2cc(Br)cn2)nc1 [Compound 287]
Barnyardgrass plant response rating (0 to 100 scale, 0 is no effect, 100 is complete control) (barnyardgrass [1]; 125 g ai/ha): 0
Barnyardgrass plant response rating (barnyardgrass [1]; [21]): 0
Crabgrass, Large plant response rating (0 to 100 scale) (large (Lg) crabgrass [2]; 125 g ai/ha): 0
Crabgrass, Large plant response rating (large (Lg) crabgrass [2]; [21]): 70
Foxtail, Giant plant response rating (0 to 100 scale) (giant foxtail [3]; 125 g ai/ha): 0
Foxtail, Giant plant response rating (giant foxtail [3]; [21]): 40
Morningglory plant response rating (0 to 100 scale) (morningglory [4]; 125 g ai/ha): 0
Morningglory plant response rating (morningglory [4]; [21]): 0
Pigweed plant response rating (0 to 100 scale) (pigweed [5]; 125 g ai/ha): 0
Pigweed plant response rating (pigweed [5]; [21]): 100
Velvetleaf plant response rating (0 to 100 scale) (velvetleaf [6]; 125 g ai/ha): 0
Velvetleaf plant response rating (velvetleaf [6]; [21]): 0
Wheat plant response rating (0 to 100 scale) (wheat [7]; 125 g ai/ha): 0
Wheat plant response rating (wheat [7]; [21]): 0
Corn plant response rating (0 to 100 scale) (corn [8]; 125 g ai/ha): 0
Corn plant response rating (corn [8]; [21]): 0
Plant response rating, Barnyardgrass (barnyardgrass [9]; [22]): 0
Plant response rating, Barnyardgrass (barnyardgrass [9]; [21]): 0
Plant response rating, Crabgrass, Large (large (Lg) crabgrass [10]; [22]): 10
Plant response rating, Crabgrass, Large (large (Lg) crabgrass [10]; [21]): 20
Plant response rating, Foxtail, Giant (giant foxtail [11]; [22]): 0
Plant response rating, Foxtail, Giant (giant foxtail [11]; [21]): 0
Plant response rating, Morningglory (morningglory [12]; [22]): 10
Plant response rating, Morningglory (morningglory [12]; [21]): 20
Plant response rating, Pigweed (pigweed [13]; [22]): 30
Plant response rating, Pigweed (pigweed [13]; [21]): 50
Plant response rating, Velvetleaf (velvetleaf [14]; [22]): 10
Plant response rating, Velvetleaf (velvetleaf [14]; [21]): 20
Plant response rating, Wheat (wheat [15]; [22]): 0
Plant response rating, Wheat (wheat [15]; [21]): 0
Plant response rating, Corn (corn [16]; [22]): 0
Plant response rating, Corn (corn [16]; [21]): 0
Plant response rating, Rice (rice): 0
Plant response rating, Sedge, Umbrella (sedge, umbrella): 0
Plant response rating, Ducksalad (Heteranthera limosa): 0
Plant response rating, Barnyardgrass (barnyardgrass [17]): 0
